# Patent US20160081935A1, “DOSAGE FORMS FOR ORAL ADMINISTRATION OF ACTIVE SUBSTANCES” (GIULIANI S.P.A., priority 2013, published 2016)
# Like-named read-outs stand apart in the source and are kept apart here.
# Columns and labels:
# [1] = cited from earlier work
# [2] = Hydrophilicity-lipophilicity index for the active ingredient in single dose (Ip.a.), calculation method; conditions: for Ip.a.: scale 0-20
# Source text: Where Ip.a. means the hydrophilicity-lipophilicity index for the active ingredient in single dose.
# Coefficient X is equal to the solubility of the active ingredient S (mg/liter) divided by the amount of active ingredient expressed in mg per single dose (mg/dose).
# A substance that is miscible in any ratio with water has an infinite water solubility, in such case considering a substance as the solute and the other as the solvent may be meaningless. Therefore, in this condition use of the above equation, which presents a horizontal asymptote, is not necessarily required. Instead, the value 20 on the scale of hydrophilicity lipophilicity is arbitrarily assigned, while the value 0, or better tending to 0, is attributed to substances considered insoluble in water.
# In the case of molecules considered insoluble, the value on the solubility index scale will tend to zero, and therefore, the scale can be considered for convenience between the values 0-20.
# [3] = Solubility of active ingredients in water; assay type: physicochemical; conditions: for Solubility: 20 °C
# Source text: The solubility (S) of a solute is the maximum amount of solute that dissolves in a fixed amount of a particular solvent at a specified temperature.
# [4] = mg per 1000 ml of water at 20° C.-25° C., 0.00001 used for practically insoluble substances
compound,measurement,setting,value
Vitamin A,Solubility,"[1]; in water, in words",practically insoluble in water
same,S,[1]; [4],0.00001 mg/L
same,X = (mg/l)/(mg/dose),[2]; dose 0.1 mg,0.0001 (mg/l)/(mg/dose)
same,Ip.a.,[2]; dose 0.1 mg,0.00000
N[C@@H](Cc1ccc(O)cc1)C(=O)O [tyrosine],S,[1]; 25° C.,453 mg/L
same,X = (mg/l)/(mg/dose),[2]; dose 45.3 mg,10 (mg/l)/(mg/dose)
same,Ip.a.,[2]; dose 45.3 mg,20
same,X = (mg/l)/(mg/dose),[2]; dose 453.0 mg,1 (mg/l)/(mg/dose)
same,Ip.a.,[2]; dose 453.0 mg,19.62
same,X = (mg/l)/(mg/dose),[2]; dose 498.3 mg,0.9091 (mg/l)/(mg/dose)
same,Ip.a.,[2]; dose 498.3 mg,16.85
same,X = (mg/l)/(mg/dose),[2]; dose 543.6 mg,0.8333 (mg/l)/(mg/dose)
same,Ip.a.,[2]; dose 543.6 mg,5.858
same,X = (mg/l)/(mg/dose),[2]; dose 588.9 mg,0.7692 (mg/l)/(mg/dose)
same,Ip.a.,[2]; dose 588.9 mg,0.7258
same,X = (mg/l)/(mg/dose),[2]; dose 634.2 mg,0.7143 (mg/l)/(mg/dose)
same,Ip.a.,[2]; dose 634.2 mg,0.08114
Oc1ccc(C=Cc2cc(O)cc(O)c2)cc1 [resveratrol],Solubility,[1]; in water,0.003 g in 100 ml
Cc1cc2nc3c(=O)[nH]c(=O)nc-3n(C[C@H](O)[C@H](O)[C@H](O)CO)c2cc1C [Riboflavin],Solubility,[3]; deduced experimentally,~80 µg/mL
same,Solubility,"[1]; 1 g in this volume, depending on the crystalline form, Merck Index",3 to 15 L
CSCC[C@H](N)C(=O)O [L-Methionine],Solubility,[1]; at 293 K,48 g/l at 293 K
same,S,[1]; [4],48000 mg/L
same,X = (mg/l)/(mg/dose),[2]; dose 300 mg,160 (mg/l)/(mg/dose)
same,Ip.a.,[2]; dose 300 mg,20
"Cc1cc2nc3c(=O)[nH]c(=O)nc-3n(C[C@H](O)[C@H](O)[C@H](O)CO)c2cc1C [Riboflavin (form A), Riboflavin]",Solubility,"[1]; volume of water that dissolves 1 g, varies with crystal form",1 g/3-15 L **
Vitamin E,Solubility,"[1]; in water, in words",practically insoluble in water
same,S,[1]; [4],0.00001 mg/L
same,X = (mg/l)/(mg/dose),[2]; dose 10 mg,0.000001 (mg/l)/(mg/dose)
same,Ip.a.,[2]; dose 10 mg,0.00000
COC1=C(OC)C(=O)C(C/C=C(\C)CC/C=C(\C)CC/C=C(\C)CC/C=C(\C)CC/C=C(\C)CC/C=C(\C)CC/C=C(\C)CC/C=C(\C)CC/C=C(\C)CCC=C(C)C)=C(C)C1=O [Ubidecarenone],Solubility,"[1]; in water, in words",practically insoluble in water
same,S,[1]; [4],0.00001 mg/L
same,X = (mg/l)/(mg/dose),[2]; dose 10 mg,0.000001 (mg/l)/(mg/dose)
same,Ip.a.,[2]; dose 10 mg,0.00000
CS(C)(=O)=O [Dimethyl sulfone],Solubility,[1]; at 25° C.,150 g/L at
same,S,[1]; [4],150000 mg/L
same,X = (mg/l)/(mg/dose),[2]; dose 500 mg,300 (mg/l)/(mg/dose)
same,Ip.a.,[2]; dose 500 mg,20
"Cc1cc2nc3c(=O)[nH]c(=O)nc-3n(C[C@H](O)[C@H](O)[C@H](O)CO)c2cc1C [Riboflavin (form B), Riboflavin]",Solubility,"[3]; riboflavin form B, in water",80 µg/mL
same,S,[3]; riboflavin form B,80 mg/L
